Where two headings read alike, the source gives them in different places. Each block holds one molecule with its values, some of them ahead of it.
Legend:
[1] = tested on: DoHH-2, OCI-LY3, WSU-DLCL2 (all wild-type for MLL2); assay: alamarBlue cell proliferation assay, MLL2 wild-type cell lines; format: cell-based; conditions: for activity against wild-type cells: in words
Procedure: Diffuse large B-cell lymphoma cell lines were maintained in RPMI medium 1640 (Life Technologies) supplemented with 10% (v/v) fetal bovine serum (Life Technologies) and 1% penicillin/streptomycin (Life Technologies) in a 37° C. incubator with 5% CO2, humidified atmosphere. Cell line DOHH2 was obtained from DSMZ. Pfeiffer was obtained from ATCC. SU-DHL-9 was obtained from Martin Dyer (University of Leicester, UK).
(§1) Compounds were initially solubilized in DMSO at a concentration of 10 mM. This compound solution was further diluted 1:100 in RPMI medium 1640 to a final concentration of 100 μM. Ninety microliters of cells maintained at a concentration of 4×10^5 cells/mL were dispensed into wells of a MICROTEST™ 96-well Assay Plate, Optilux™ (BD). Ten microliters of the 100 μM compound solution were then added to the cells resulting in a final compound concentration of 10 μM. Each compound was tested in triplicate. Ten microliters of a 1:100 DMSO to RPMI medium 1640 solution were also added to 90 μL of cells as a carrier control. Furthermore, each plate included wells containing only RPMI medium 1640 to serve as a background noise control as well as cells that were completely untreated. Compounds were incubated with the cells in a 37° C. incubator with 5% CO2, humidified atmosphere for 48 hours before being subjected to the alamarBlue® cell proliferation assay (Life Technologies). Raw fluorescent units were corrected for background noise and normalized to the carrier-treated control.
The activity of Compound 3 in vitro was investigated further using the cell lines DoHH-2, OCI-LY3, WSU-DLCL2 (all wild-type for MLL2) and SU-DHL9. In addition, the dose response for Compound 2 was investigated in cell lines mutant for MLL2 or both MLL2 and EZH2. The dose response for Compound 3 was investigated in a MLL2 mutant cell line. Methods were as described for Example 3. Cell-line WSU-DLCL2 was obtained from DSMZ and OCI-Ly lines 3 was obtained from Louis Staudt (US National Institutes of Health).

[2] = tested on: SU-DHL-9 (MLL2 mutated) tumours; assay: SU-DHL-9 mouse xenograft model; format: in vivo; conditions: eight days, day nine
Procedure: NOD/SCID/γ^null (NSG) mice were bred at the local BCCRC animal facility. To establish primary tumors, male NSG mice were inoculated with 1×10^7 cells of the human diffuse histiocytic lymphoma cell line SU-DHL-9 in 50 μl PBS in the flank area. After development of s.c. tumors, mice were sacrificed and small fragments of the tumors (˜20 mg) were transplanted s.c. into the right flank of anesthetized six-ten weeks old male NSG recipient mice using 13 G trocar needles. Treatment was initiated once the tumors became palpable. Tumourlength and width was determined by caliper and tumourvolume was calculated by the modified ellipsoidal formula as […].
Compounds were diluted in a mixture of 50% DMSO and 50% polyethylene glycol 200. Eight tumor-bearing mice per group were administered by intraperitoneal injections daily over a period of eight days with either compounds at doses of 1 mg/kg or 4 mg/kg (Compound 3; NSC 127763), 4 mg or 12 mg/kg (Compound 2; NSC 304107) or the vehicle for control. Body weight was recorded every two days, tumoursize every four days and mice were monitored for any other additional adverse effects. Experimental animals were sacrificed at day nine, tumourvolumes were determined and the significance of differences was determined by Student's t-test after normalizing to the initial tumourvolume.

[3] = target: T1, GST-BPTF dual PHD finger-bromodomain (Homo sapiens, UniProt Q12830); assay: BPTF pull down assay with H3K4 methylated peptides; format: binding; conditions: 68 μM drug
T1 construct: The dual PHD finger-bromodomain (residues 2583-2751) from the human BPTF (gi:31322942); made in house; host or cells: E. coli BL21-AI
Procedure: Certain embodiments of the invention relate to the use of a “pull down” assay to characterize the binding of candidate compounds to the target mark. A general schema for such an assay as it applies to BPTF is shown in FIG. 4 and described in Example 5. Briefly, the GST-labeled PHD finger-bromodomain of BPTF was incubated with the candidate compound and H3K4me0, me1, me2 or me3 peptides that were coupled to streptavidin-labeled dynabeads through a biotin molecule on the peptide. After washing with an appropriate buffer, bound protein was eluted from the beads and assessed by SDS-PAGE and optionally Western blot. One skilled in the art will appreciate that this assay can be readily adapted to other readers/erasers and histone marks.
The full-length human BPTF construct was obtained from C. David Allis of the Laboratory of Chromatin Biology, Rockefeller University (Li et al., 2006, ibid). The dual PHD finger-bromodomain (residues 2583-2751) from the human BPTF (gi:31322942) was cloned into a pDEST15 vector using Gateway® cloning technology allowing for an N-terminal GST tag (Life Technologies). Over-expression of the GST-BPTF dual PHD finger-bromodomain was induced in BL21-AI™ chemically competent E. coli cells using LB medium supplemented with 1 mM IPTG and 0.2% L-arabinose for 2 hours in a 37° C. shaking incubator. GST-BPTF dual PHD finger-bromodomain was purified using Glutathione Sepharose 4B media (GE Healthcare Life Sciences) and dialyzed against PBS (Life Technologies) overnight.
The peptide pull-down experiment was performed essentially as previously described (Ruthenburg et al., 2011, Cell, 145(5):692-706.). Fifty microliters of M-280 streptavidin-coupled Dynabeads® (Life Technologies) were dispensed into 1.5 mL microtubes and washed 3×50 μL in PBS. The beads were then incubated with C-terminally biotinylated H3K4me0, me1, me2 or me3 peptides 21 amino acids long (Anaspec) rotating for 1 hour at 4° C. under saturating conditions. The beads were washed 3×100 μL in HBS-TD (10 mM Na-HEPES, 150 mM NaCl, 0.005% Tween-20, 2 mM DTT) and incubated with 6.8 μM of GST-BPTF along with either 68 μM of drug in a 1:100 DMSO to PBS solution or carrier alone rotating for 3 hours at 4° C. The beads were then washed 10×200 μL in HBS-TD. The protein was eluted using 2×LDS sample buffer (Life Technologies) and 1× reducing agent (Life Technologies) at 85° C. for 10 minutes. Samples were subjected to SDS-PAGE and bands were visualized using either SimplyBlue stain (Life Technologies) or GST antibody (Santa Cruz). Quantification of bands was made using ImageJ software.

[4] = tested on: SU-DHL-9 (MLL2 homozygous indel mutant) cell line; assay: alamarBlue cell proliferation assay, SU-DHL-9 cell line; format: cell-based, human; conditions: for activity at 10 µM: Homo sapiens, 48 hours, normalized to carrier-treated control, SU-DHL-9, read-out: % Cell Proliferation; for activity against the MLL2 double LoF mutant cell line: SU-DHL-9, in words; for activity as worded in SAR analysis (selective toxicity against SU-DHL-9): in words, restates Tables 3 and 4
Procedure: Cell line DOHH2 was obtained from DSMZ. Pfeiffer was obtained from ATCC. SU-DHL-9 was obtained from Martin Dyer (University of Leicester, UK).
as §1, with “This compound solution was further diluted 1:100 in RPMI medium 1640 to a final concentration of 100 μM.” left out, “Ten microliters of a 1:100 DMSO to RPMI medium 1640 solution were also added to 90 μL of cells as a carrier control. Furthermore, each plate included wells containing only RPMI medium 1640 to serve as a background noise control as well as cells that were completely untreated.” left out

[5] = tested on: WSU-DLCL2 human diffuse large cell lymphoma tumours; assay: WSU-DLCL2 mouse xenograft model; format: in vivo; conditions: evaluation at day 12
Procedure: WSU-DLCL2 tumourfragments were transplanted subcutaneously into the flank of male NSG mice. Mice were 9.0-9.3 weeks at transplantation and treatment was started when the mice were between 12.9 and 13.1 weeks. 8 mice were used per group and treatment was daily for ten days with evaluation at day 12. Tumoursize determined by caliper every four days, tumourvolume calculated by length×width^2/2.
The groups of mice were treated with vehicle (control), 1 mg/kg Compound 50 or 4 mg/kg Compound 50 by intraperitoneal injection. Vehicle was 50% DMSO/50% PEG-400.
WSU-DLCL2 tumourfragments were transplanted subcutaneously into the flank of male NSG mice. Mice were 5.3-9.4 weeks at transplantation and treatment was started when the mice were between 8.6 and 12.7 weeks. 8 mice were used in the control group and 6 mice were used in the Compound 51 treated group. Treatment was daily for ten days with evaluation at day 12. Tumoursize determined by caliper every four days, tumourvolume calculated by length×width^2/2.
The groups of mice were treated with vehicle (control) or Compound 51 by intraperitoneal injection at 4 mg/kg for the first 5 days and 2 mg/kg for the subsequent 5 days. Vehicle was 50% DMSO/50% PEG-400.

[6] = tested on: DB (EZH2 mutation Y641N, MEF2B mutation D83V, three mutations in MLL2); assay: Cell viability of lymphoma cell lines, DB; format: cell-based; conditions: in words
Procedure: (§2) Compound 50 was tested for its effect on the viability of three lymphoma cell lines in vitro using standard methods. The cell lines tested were: DoHH-2 (wildtype for EZH2, MEF2B and MLL2); WSU-DLCL2 (EZH2 mutation Y641F (wildtype for MEF2B and MLL2)) and DB (EZH2 mutation Y641N, the MEF2B mutation D83V and three mutations in MLL2 (two of which lead to a truncated protein after residue Q2736 and the third allele has a 1 base pair deletion at residue P480)).

[7] = tested on: WSU-DLCL2 Cells (EZH2 mutation Y641F); assay: Cell viability of lymphoma cell lines, WSU-DLCL2; format: cell-based, human; conditions: WSU-DLCL2, in words
Procedure: as §2
(§3) Compound 51 (NSC2540) was tested for its effect on the viability of four lymphoma cell lines in vitro using standard methods. The cell lines tested were DoHH-2, WSU-DLCL2, DB and SU-DHL-9 (EZH2 wildtype, MEF2B wildtype, MLL2 indel).

[8] = tested on: DoHH2 Cells (wildtype for EZH2, MEF2B and MLL2); assay: Cell viability of lymphoma cell lines, DoHH-2; format: cell-based; conditions: DoHH-2, in words
Procedure: as §2, §3

MDA-MB-231 = assay: Viability of breast cancer cell lines, MDA-MB-231; format: cell-based; conditions: MDA-MB-231, in words
Procedure: (§4) Compounds 50 and 51 were tested for their effect on the viability of four breast cancer cell lines in vitro using standard methods. The cell lines tested were: MCF-7, MDA-MB-231, HCC202 (CRL-2316) and HCC1500 (CRL-2329).

HCC1500 (CRL-2329) = assay: Viability of breast cancer cell lines, HCC1500; format: cell-based; conditions: in words
Procedure: as §4

HCC202 (CRL-2316) = assay: Viability of breast cancer cell lines, HCC202; format: cell-based; conditions: in words
Procedure: as §4

[9] = tested on: SU-DHL-9 (EZH2 wildtype, MEF2B wildtype, MLL2 indel); assay: Cell viability of lymphoma cell lines, SU-DHL-9 (CBX2 compound); format: cell-based, human; conditions: SU-DHL-9, in words
Procedure: as §3

[10] = 6.8 μM GST-BPTF, GST antibody staining

binding of H3K4me2 with BPTF [3, 10]: able to stabilize the binding | binding of H3K4me3 with BPTF [3, 10]: diminished binding
SMILES: CN(C)CCC(=O)c1ccc(Cl)cc1Cl [Compound 2, 1-(2,4-dichloro-phenyl)-3-dimethylamino-propan-1one]
activity against wild-type cells [1]: inactive | median tumour growth ([2]; 12 mg/kg intraperitoneal daily, untreated control 1755%): 1305% | activity at 10 µM ([4]; Table 3, scaffold A): < 10% | activity against the MLL2 double LoF mutant cell line [4]: active | activity as worded in SAR analysis (selective toxicity against SU-DHL-9) [4]: active

binding of H3K4me1 with BPTF [3, 10]: able to stabilize the binding | binding of H3K4me3 with BPTF [3, 10]: diminished binding | Densitometry value, H3K4me3 + compound ([3]; without compound 2545): 4227 | Densitometry value, H3K4me1 + compound ([3]; without compound 9350): 13335
SMILES: O=C1c2ccccc2C(=O)c2c(NC(=O)C(Cl)CCl)cccc21 (stereo not shown) [Compound 3, 2,3-didhloro-N-(9,10-dioxo-9,10-dihydro-anthracen-1-yl)-propionamide]
effect on cells where MLL2 was wild-type ([1]; DoHH-2, OCI-LY3, WSU-DLCL2): no obvious effect | activity against wild-type cells [1]: inactive | median tumour growth ([2]; 4 mg/kg intraperitoneal daily, untreated control 563%): 362% | activity at 10 µM ([4]; Table 4, scaffold B): < 10% | activity against the MLL2 double LoF mutant cell line [4]: active | activity as worded in SAR analysis (selective toxicity against SU-DHL-9) [4]: active

SMILES: O=C(CBr)c1cc(-c2ccccc2)nc2c(Cl)cc(Cl)cc12 [Compound 50]
effect on tumour volume ([5]; 1 mg/kg or 4 mg/kg intraperitoneal daily for ten days, p=0.0047 control vs 4 mg/kg): able to reduce tumour volume | effect on viability [6]: reduced the viability | effect on viability [7]: highest activity | effect on viability [8]: reduced the viability

SMILES: OC(c1cc(-c2ccc(Cl)c(Cl)c2)nc2ccccc12)C1CCCCN1 (stereo not shown) [Compound 51]
effect on tumour volume ([5]; intraperitoneal 4 mg/kg for 5 days then 2 mg/kg for 5 days, p=0.0125): able to significantly reduce tumourvolume | effect on viability (MDA-MB-231): able to decrease viability | effect on viability (HCC1500 (CRL-2329)): able to decrease viability | effect on viability (HCC202 (CRL-2316)): able to decrease viability | effect on viability [9]: able to decrease viability | effect on viability [7]: able to decrease viability | effect on viability [8]: able to decrease viability
